From patent US9708293B2, “N-(pyridin-2-yl)pyrimidin-4-amine derivatives containing a sulfone group” (BAYER PHARMA AKTIENGESELLSCHAFT, priority 2012, dated 2017) come the findings set out here.

Molecules are shown by their SMILES.

One assay concerns the target T1, CDK2/CycE (Homo sapiens, UniProt P24941).
T1 construct: GST; purchased ProQinase GmbH (Freiburg, Germany); host or cells: insect cells (Sf9)
Nature of the assay: CDK2/CycE kinase assay (Method 2a). The format is biochemical. Conditions: 10 μM ATP. The text has this:
2a. CDK2/CycE Kinase Assay:
CDK2/CycE-inhibitory activity of compounds of the present invention was quantified employing the CDK2/CycE TR-FRET assay as described in the following paragraphs:
Recombinant fusion proteins of GST and human CDK2 and of GST and human CycE, expressed in insect cells (Sf9) and purified by Glutathion-Sepharose affinity chromatography, were purchased from ProQinase GmbH (Freiburg, Germany). As substrate for the kinase reaction biotinylated peptide biotin-Ttds-YISPLKSPYKISEG (C-terminus in amid form) was used which can be purchased e.g. form the company JERINI Peptide Technologies (Berlin, Germany).
For the assay 50 nl of a 100 fold concentrated solution of the test compound in DMSO was pipetted into a black low volume 384 well microtiter plate (Greiner Bio-One, Frickenhausen, Germany), 2 μl of a solution of CDK2/CycE in aqueous assay buffer [50 mM Tris/HCl pH 8.0, 10 mM MgCl2, 1.0 mM dithiothreitol, 0.1 mM sodium ortho-vanadate, 0.01% (v/v) Nonidet-P40 (Sigma)] were added and the mixture was incubated for 15 min at 22° C. to allow pre-binding of the test compounds to the enzyme before the start of the kinase reaction. Then the kinase reaction was started by the addition of 3 μl of a solution of adenosine-tri-phosphate (ATP, 16.7 μM=>final conc. in the 5 μl assay volume is 10 μM) and substrate (1.25 μM=>final conc. in the 5 μl assay volume is 0.75 μM) in assay buffer and the resulting mixture was incubated for a reaction time of 25 min at 22° C. The concentration of CDK2/CycE was adjusted depending of the activity of the enzyme lot and was chosen appropriate to have the assay in the linear range, typical concentrations were in the range of 130 ng/mL. The reaction was stopped by the addition of 5 μl of a solution of TR-FRET detection reagents (0.2 μM streptavidine-XL665 [Cisbio Bioassays, Codolet, France] and 1 nM anti-RB(pSer807/pSer811)-antibody from BD Pharmingen [#558389] and 1.2 nM LANCE EU-W1024 labeled anti-mouse IgG antibody [Perkin-Elmer, product no. AD0077]) in an aqueous EDTA-solution (100 mM EDTA, 0.2% (w/v) bovine serum albumin in 100 mM HEPES/NaOH pH 7.0).
The resulting mixture was incubated 1 h at 22° C. to allow the formation of complex between the phosphorylated biotinylated peptide and the detection reagents. Subsequently the amount of phosphorylated substrate was evaluated by measurement of the resonance energy transfer from the Eu-chelate to the streptavidine-XL. Therefore, the fluorescence emissions at 620 nm and 665 nm after excitation at 350 nm was measured in a TR-FRET reader, e.g. a Rubystar (BMG Labtechnologies, Offenburg, Germany) or a Viewlux (Perkin-Elmer). The ratio of the emissions at 665 nm and at […] was taken as the measure for the amount of phosphorylated substrate. […]

The next assay has as its system A2780 cells. Put plainly: Proliferation assay, A2780. Conditions: Homo sapiens, A2780, 96 h; 4 days, crystal violet; read-out: Inhibition of A2780 cell proliferation IC50. Type of assay: cell-based. As for the experimental part: Cultivated tumour cells (HeLa, human cervical tumour cells, ATCC CCL-2; NCI-H460, human non-small cell lung carcinoma cells, ATCC HTB-177; A2780, human ovarian carcinoma cells, ECACC #93112519; DU 145, hormone-independent human prostate carcinoma cells, ATCC HTB-81; HeLa-MaTu-ADR, multidrug-resistant human cervical carcinoma cells, EPO-GmbH Berlin; Caco-2, human colorectal carcinoma cells, ATCC HTB-37; B16F10, mouse melanoma cells, ATCC CRL-6475) were plated at a density of 5,000 cells/well (DU145, HeLa-MaTu-ADR), 3,000 cells/well (NCI-H460, HeLa), 2,500 cells/well (A2780), 1,500 cells/well (Caco-2), or 1,000 cells/well (B16F10) in a 96-well multititer plate in 200 μL of their respective growth medium supplemented 10% fetal calf serum. […] Cell proliferation was determined by staining the cells with crystal violet: the cells were fixed by adding 20 μl/measuring point of an 11% glutaric aldehyde solution for 15 minutes at room temperature. […] The extinction was determined by photometry at a wavelength of 595 nm. The change of cell number, in percent, was calculated by normalization of the measured values to the extinction values of the zero-point plate (=0%) and the extinction of the untreated (0 μm) cells (=100%). […]

A further assay relates to Caco-2 cells. Nature of the assay: Proliferation assay, Caco-2. The format is cell-based. Conditions: Homo sapiens, Caco-2, 96 h; 4 days, crystal violet; read-out: Inhibition of Caco-2 cell proliferation IC50. Here is the method:
Cultivated tumour cells (HeLa, human cervical tumour cells, ATCC CCL-2; NCI-H460, human non-small cell lung carcinoma cells, ATCC HTB-177; A2780, human ovarian carcinoma cells, ECACC #93112519; DU 145, hormone-independent human prostate carcinoma cells, ATCC HTB-81; HeLa-MaTu-ADR, multidrug-resistant human cervical carcinoma cells, EPO-GmbH Berlin; Caco-2, human colorectal carcinoma cells, ATCC HTB-37; B16F10, mouse melanoma cells, ATCC CRL-6475) were plated at a density of 5,000 cells/well (DU145, HeLa-MaTu-ADR), 3,000 cells/well (NCI-H460, HeLa), 2,500 cells/well (A2780), 1,500 cells/well (Caco-2), or 1,000 cells/well (B16F10) in a 96-well multititer plate in 200 μL of their respective growth medium supplemented 10% fetal calf serum. After 24 hours, the cells of one plate (zero-point plate) were stained with crystal violet (see below), while the medium of the other plates was replaced by fresh culture medium (200 μl), to which the test substances were added in various concentrations (0 μM, as well as in the range of 0.001-10 μM; the final concentration of the solvent dimethyl sulfoxide was 0.5%). The cells were incubated for 4 days in the presence of test substances. Cell proliferation was determined by staining the cells with crystal violet: the cells were fixed by adding 20 μl/measuring point of an 11% glutaric aldehyde solution for 15 minutes at room temperature. After three washing cycles of the fixed cells with water, the plates were dried at room temperature. The cells were stained by adding 100 μl/measuring point of a 0.1% crystal violet solution (pH 3.0). After three washing cycles of the stained cells with water, the plates were dried at room temperature. The dye was dissolved by adding 100 μl/measuring point of a 10% acetic acid solution. The extinction was determined by photometry at a wavelength of 595 nm. The change of cell number, in percent, was calculated by normalization of the measured values to the extinction values of the zero-point plate (=0%) and the extinction of the untreated (0 μm) cells (=100%). […]

The test system of the next assay is MOLM13 cells. Nature of the assay: Proliferation assay, MOLM-13. Type of assay: cell-based. Conditions: Homo sapiens, 72-hour exposure, Cell Titre-Glo, read-out: Inhibition of MOLM13 cell proliferation IC50. Here is the method: Non-adherent MOLM-13 human acute myeloid leukemia cells (DSMZ ACC 554) were seeded at a density of 5,000 cells/well in a 96-well multititer plate in 100 μL of growth medium supplemented 10% fetal calf serum. After 24 hours, cell viability of one plate (zero-point plate) was determined with the Cell Titre-Glo Luminescent Cell Viability Assay (Promega), while 50 μL of test compound containing medium was added to the wells of the other plates (final concentrations in the range of 0.001-10 μM and DMSO controls; the final concentration of the solvent dimethyl sulfoxide was 0.5%). Cell viability was assessed after 72-hour exposure with the Cell Titre-Glo Luminescent Cell Viability Assay (Promega). IC50 values (inhibitory concentration at 50% of maximal effect) were determined by means of a 4 parameter fit on measurement data which were normalized to vehicle (DMSO) treated cells (=100%) and measurement readings taken immediately before compound exposure (=0%).

For `COc1cc(F)ccc1-c1cc(Nc2cc(CS(C)(=O)=O)cc(F)n2)ncn1` [Example 4, 6-(4-Fluoro-2-methoxyphenyl)-N-{6-fluoro-4-[(methylsulfonyl)methyl]pyridin-2-yl}pyrimidin-4-amine], the IC50 against CDK2/CycE was 92 nM.

Take `COc1cc(F)ccc1-c1cc(Nc2cc(CS(C)(=O)=O)ccn2)ncn1` [Example 1, 6-(4-Fluoro-2-methoxyphenyl)-N-{4-[(methylsulfonyl)methyl]pyridin-2-yl}pyrimidin-4-amine]: the IC50 in the assay on A2780 cells worked out at 65 nM; on CDK2/CycE, 280 nM; in the assay with Caco-2 cells, 341 nM.

For the compound `COc1cc(F)ccc1-c1cc(Nc2cc(CS(C)(=O)=O)cc(C)n2)ncn1` [Example 2, 6-(4-Fluoro-2-methoxyphenyl)-N-{6-methyl-4-[(methylsulfonyl)methyl]pyridin-2-yl}pyrimidin-4-amine], the figures for the IC50 against CDK2/CycE and in the assay on Caco-2 cells were 90 nM and 91 nM, respectively.

With `COc1cc(F)ccc1-c1cc(Nc2cc(CS(C)(=O)=O)cc(C(F)(F)F)n2)ncn1` [Example 3, 6-(4-Fluoro-2-methoxyphenyl)-N-{4-[(methylsulfonyl)methyl]-6-(trifluoromethyl)pyridin-2-yl}pyrimidin-4-amine], the IC50 in the assay with A2780 cells is 14 nM; with MOLM13 cells, 18 nM; against CDK2/CycE it was 73 nM; with Caco-2 cells it was 52 nM.
